Measurements from patent publication US20240366553A1, “ASPARTIC ACID COPPER COMPLEX, AND USE THEREOF” (GUANGZHOU INSIGHTER BIOTECHNOLOGY CO., LTD., priority 2021, published 2024).

Tests used:
[1] = system: black carp (subyearlings); experiment: Use of aspartic acid copper complex in aquaculture feeds (black carp breeding experiment); format: in vivo; details: 30 mg/kg in feed (as copper ions), 8 weeks
Protocol: Experimental fishes: The experimental fishes used were black carp (subyearlings), which were provided by the Dafeng fish nursery (Huizhou city, Guangdong province). Healthy and active fingerling black carps (uniform in size) were fed for 4 weeks in a big net cage (4×2×1.5 m^3) and then the formal breeding experiment was carried out. The experimental systems were small floating net cages (1.1×1.1×1.1 m^3 in size). Each small net cage was provided with an air-filling head, which allowed for continuous inflation of the cages for 24 h a day. The small net cages and the acclimatization net cage were all placed in a 3500 m^2 pond in the experimental field. […] During the trial, 480 black carps (fasted for 1 d) were randomly divided into 10 groups, with 4 replicates for each group and 12 fishes in each replicate. After weighing as a whole, the black carps were randomly placed into […] and fed with different experimental feeds.
Experimental feeds: The experimental feeds were formulated following the formula in Table 5. According to Table 6, different copper element supplements (calculated based on the copper ions) were added to the feeds in different experimental groups, respectively. The feed raw materials were subjected to ultrafine grinding and then granulated into floating expanded feeds (3 mm) using an expansion machine from Jiangsu Muyang Corporation. The demolding temperature was 130° C. 3% soybean oil was externally sprayed using an oil spraying device. The finished product was sealed and stored in a cool place for later use.
Experimental management: During the trial, the carps were manually fed in a restricted dose. The feeding dose was adjusted once a week, and the doses for all groups (based on the initial body weight) were completely consistent. The carps were fed twice a day (at 7:30 and 15:00). The experiment lasted for 8 weeks. During the trial, the water quality was regularly monitored, and throughout the breeding, the water temperature was kept at 26.88±3.08° C., DO>5.0 mg O L^−1, pH 7.8, ammonia nitrogen<0.50 mg NL^−1, and nitrite-nitrogen<0.05 mg N L^−1.
Parametric statistics: During the trial, the carps in each net cage were weighed as a whole one day after discontinuation of feeding, and the average weight gain (g) and feed-to-meat ratio were calculated. The calculation formulas are as follows:
Average weight gain (g)=Average final weight−Average initial weight; Feed-to-meat ratio=Food intake/Weight gain of fishes;

weaned piglets = details: for Average weight gain / Feed-to-meat ratio / Survival rate (%) / Total feed consumption / Total weight gain / Relative weight gain rate (%): 50 mg/kg in feed (as copper ion), weaned piglets, 30 days; for Total feed consumption / Total weight gain: 10 pigs; for Relative weight gain rate (%): control group = 100
From the text: (§1) Experimental animals: 900 one-day-old Lingnan yellow-feathered, fast-growing, and large-sized broilers; 150 weaned piglets;
(§2) Feeds: basal feed for chickens and basal feed for pigs that contain no antimicrobial drugs, copper sources and growth promoters;
(§3) Experimental samples: compound 1, compound 2, compound 3, compound 4, compound 5, compound 6, compound 7,
150 weaned piglets were grouped according to Table 2 (10 piglets/group). […] The piglets had free access to food. The weight gain and feed conversion of the experimental pigs in each experimental group were recorded within 30 days after […] weaning.

[2] = system: Lingnan yellow-feathered, fast-growing, and large-sized broilers; details: for Average feed consumption / Average weight gain / Feed-to-meat ratio / Survival rate (%) / Relative weight gain rate (%): 50 mg/kg in feed (as copper ion), broilers aged 1 to 21 days; for Relative weight gain rate (%): relative to control group; for Physical characteristics of the experimental chickens: experimental groups of compounds 1-7
From the text: as §1, §2, §3
900 one-day-old Lingnan yellow-feathered, fast-growing, and large-sized broilers were randomly divided into 18 groups (50 broilers/group). […] The broilers had free access to food. The weight gain and feed conversion of the experimental chickens (aged from 1 to 21 days) in each experimental group were recorded.

[3] = 50 mg/kg (as copper ion), versus control

Structure (SMILES) | Average weight gain [1] [g] | Feed-to-meat ratio [1] | Average weight gain (weaned piglets) [kg] | Feed-to-meat ratio (weaned piglets) | Survival rate (%) (weaned piglets) | Total feed consumption (weaned piglets) [kg] | Total weight gain (weaned piglets) [kg] | Relative weight gain rate (%) (weaned piglets) | Improvement in the feed conversion of the experimental pigs compared with compound 4 (weaned piglets; used at the same doses (50 mg/kg)) | Average feed consumption [2] [g] | Average weight gain [2] [g] | Feed-to-meat ratio [2] | Survival rate (%) [2] [%] | Relative weight gain rate (%) [2] [%] | Physical characteristics of the experimental chickens [2] | Feed conversion decreased by [2, 3] [%] | Relative weight gain rate increased by [2, 3] [%]
N[C@@H](CC(=O)[O-])C(=O)[O-].O.O.[Cu+2] [Compound 3, [(Cu(II))(L-Asp)(H2O)2]·(H2O)0.62] | 361 | 1.385 | 11.92 | 2.114 | 100 | 251.97 | 119.2 | 109.4 | about 2 fold | 919 | 514 | 1.788 | 100 | 108.4 | normal physical characteristics | – | –
N[C@@H](CC(=O)[O-])C(=O)[O-].[Cu+2] [Compound 4, [(Cu(II))(L-Asp)]] | 344 | 1.453 | 11.67 | 2.208 | 100 | 257.63 | 116.7 | 107.06 | – | 924 | 508 | 1.819 | 100 | 107.2 | normal physical characteristics | 3.23 | 7.2
NC(CC(=O)[O-])C(=O)[O-].O.O.[Cu+2] (racemic) [Compound 5, [(Cu(II))(DL-Asp)(H2O)2]] | 349 | 1.433 | 11.83 | 2.184 | 100 | 258.35 | 118.3 | 108.5 | – | 917 | 503 | 1.824 | 100 | 106.1 | normal physical characteristics | – | –
